The values below come from ChEMBL document CHEMBL1201862, “PubChem BioAssay data set” (2004).

Test systems include Hs-578T; CAKI-1; HCT-116; EKVX; 786-0; MCF7; NCI/ADR-RES; HOP-92; SW-620; SN12C; SK-MEL-5; HL-60; NCI-H23; UACC-62; OVCAR-4; NCI-H522; SK-MEL-2; MOLT-4; HCC 2998.
Common to all, as to experiment: NCI-60 cell line screen, 48 h

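The compound was tested at five concentrations on cells cultured in 96-well plates, with a 48-hour exposure period. GI50 is the concentration that inhibits growth by half.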 Activity calls are given as the source filed them. Cut-off read from the data, not from the text of the source: active = GI50 up to about 1.1 µM and inactive = higher.

Turning to `c1ccc([P+](CCCCCCCC[P+](c2ccccc2)(c2ccccc2)c2ccccc2)(c2ccccc2)c2ccccc2)cc1`, the GI50 in the assay with Hs-578T is 2.06 µM (inactive); in the assay on CAKI-1, > 100 µM (inactive); with HCT-116, 1.87 µM (inactive); with EKVX, > 61.5 µM (inactive); with 786-0 it was 16.6 µM (inactive); in the assay with MCF7, 4.48 µM (inactive). For the same molecule, the GI50 in the assay on NCI/ADR-RES is > 100 µM (inactive); with HOP-92, 3.07 µM (inactive); in the assay with SW-620, 6.81 µM (inactive); in the assay on SN12C, 3.73 µM (inactive); in the assay on SK-MEL-5, 8.05 µM (inactive); in the assay with HL-60 it was 1.03 µM (active). Besides, the GI50 was 2.16 µM (inactive) in the assay with NCI-H23; 24.1 µM (inactive) in the assay on UACC-62; 6.04 µM (inactive) in the assay with OVCAR-4; 1.8 µM (inactive) in the assay with NCI-H522; 5.69 µM (inactive) in the assay with SK-MEL-2; 10.2 µM (inactive) in the assay on MOLT-4. The GI50 in the assay with HCC 2998 was 21.3 µM (inactive).

Consider `CN1C/C(=C\c2cccs2)C2=NN(C)C(c3cccs3)C2C1` (stereo not given), for which the GI50 was > 100 µM (inactive) in the assay on Hs-578T; > 100 µM (inactive) in the assay with CAKI-1; 51.4 µM (inactive) in the assay on HCT-116; > 100 µM (inactive) with EKVX; > 100 µM (inactive) with 786-0; 75.5 µM (inactive) with MCF7. Also, the GI50 is > 100 µM (inactive) in the assay on NCI/ADR-RES; 20.5 µM (inactive) with HOP-92; > 100 µM (inactive) with SW-620; 95.7 µM (inactive) in the assay on SN12C; 58.3 µM (inactive) in the assay with SK-MEL-5; 3.05 µM (inactive) in the assay with HL-60. In addition, the GI50 with NCI-H23 is > 100 µM (inactive); in the assay with UACC-62 it was > 100 µM (inactive); in the assay on OVCAR-4, 35.8 µM (inactive); in the assay with NCI-H522, 81.3 µM (inactive); with SK-MEL-2, 24 µM (inactive); in the assay with MOLT-4, 28.8 µM (inactive). The GI50 in the assay on HCC 2998 was 42.1 µM (inactive).

Consider `COc1ccc(CCCCl)c(C2=NCCc3cc(OC)c(OC)cc32)c1`, for which the GI50 in the assay with Hs-578T was 32.7 µM (inactive); in the assay with CAKI-1, 39.7 µM (inactive); with HCT-116, 33 µM (inactive); in the assay on EKVX it was 53.6 µM (inactive); in the assay on 786-0, 94.8 µM (inactive); with MCF7, 41.5 µM (inactive). Moreover, the GI50 was 46.8 µM (inactive) with NCI/ADR-RES; 20.6 µM (inactive) in the assay on HOP-92; 72.1 µM (inactive) with SW-620; 54.3 µM (inactive) in the assay with SN12C; 26.1 µM (inactive) in the assay on SK-MEL-5; 27.5 µM (inactive) with HL-60. In addition, the GI50 in the assay on NCI-H23 was 31.5 µM (inactive); in the assay on UACC-62 it was 32.8 µM (inactive); in the assay on OVCAR-4 it was > 100 µM (inactive); with NCI-H522, 28.8 µM (inactive); with SK-MEL-2, 39.7 µM (inactive); in the assay on MOLT-4, 41.6 µM (inactive). In the assay on HCC 2998, the GI50 is 48.4 µM (inactive).

For `COc1ccccc1-c1cc(O)c2cccnc2n1`, the GI50 is 61 µM (inactive) with Hs-578T; 29.4 µM (inactive) in the assay with CAKI-1; 27.5 µM (inactive) with HCT-116; 53.6 µM (inactive) with EKVX; 76 µM (inactive) with 786-0; 6.59 µM (inactive) in the assay with MCF7. For the same molecule, the GI50 with NCI/ADR-RES is 37 µM (inactive); in the assay on HOP-92 it was 7.89 µM (inactive); with SW-620 it was 30.1 µM (inactive); in the assay on SN12C, 50.2 µM (inactive); in the assay with SK-MEL-5, 31.4 µM (inactive); in the assay with HL-60, 39.3 µM (inactive). The GI50 was 35.2 µM (inactive) in the assay on NCI-H23; 47.5 µM (inactive) in the assay with UACC-62; 69.5 µM (inactive) with OVCAR-4; 46.9 µM (inactive) in the assay on NCI-H522; 36.5 µM (inactive) with SK-MEL-2; 35.2 µM (inactive) in the assay with MOLT-4. Moreover, the GI50 in the assay with HCC 2998 was > 100 µM (inactive).

Regarding `COC(=O)c1scc(N)c1-n1ccc(=O)[nH]c1=O`, the GI50 with Hs-578T, in the assay with CAKI-1, in the assay with HCT-116, in the assay on EKVX, in the assay on 786-0 and in the assay on MCF7 was > 100 µM (inactive) each time. Moreover, the GI50 with NCI/ADR-RES, with HOP-92, in the assay on SW-620, with SN12C, in the assay with SK-MEL-5 and in the assay with HL-60 was > 100 µM (inactive) throughout. Further, the GI50 with NCI-H23, with UACC-62, in the assay with OVCAR-4, in the assay with NCI-H522, in the assay with SK-MEL-2 and with MOLT-4 was > 100 µM (inactive) each time. Besides, the GI50 with HCC 2998 was > 100 µM (inactive).

Consider `COc1cc2c3c(n(C)c(=O)c2cc1OC)-c1cc2c(cc1C3=O)OCO2`, for which the GI50 in the assay on Hs-578T was > 80 µM (inactive); in the assay with CAKI-1 it was 4.98 µM (inactive); in the assay on HCT-116, 6.35 µM (inactive); in the assay with EKVX, 35.3 µM (inactive); in the assay with 786-0, 16.9 µM (inactive); with MCF7, 1.23 µM (inactive). In addition, the GI50 in the assay with NCI/ADR-RES was 41.9 µM (inactive); in the assay on HOP-92, 38.2 µM (inactive); with SW-620, 10.2 µM (inactive); in the assay on SN12C, 38.6 µM (inactive); with SK-MEL-5, 9.2 µM (inactive); with HL-60 it was 22 µM (inactive). Besides, the GI50 is 5.01 µM (inactive) in the assay with NCI-H23; 1.7 µM (inactive) with UACC-62; > 100 µM (inactive) in the assay on OVCAR-4; 1.46 µM (inactive) in the assay with NCI-H522; > 42 µM (inactive) in the assay with SK-MEL-2; 0.44 µM (active) in the assay with MOLT-4. Also, the GI50 in the assay with HCC 2998 is > 80.5 µM (inactive).

Consider `CNC(=O)N(CCC#N)CCN(C(=O)N(C)C)c1ccccc1`, for which the GI50 in the assay on Hs-578T, in the assay with CAKI-1, in the assay on HCT-116, in the assay on EKVX, in the assay on 786-0 and in the assay on MCF7 was > 100 µM (inactive) each time. In addition, the GI50 in the assay with NCI/ADR-RES, in the assay with HOP-92, with SW-620, in the assay with SN12C, in the assay on SK-MEL-5 and in the assay with HL-60 was > 100 µM (inactive) throughout. The GI50 in the assay with NCI-H23, in the assay on UACC-62, in the assay with OVCAR-4, with NCI-H522, with SK-MEL-2 and in the assay on MOLT-4 was > 100 µM (inactive) in each case. Further, in the assay on HCC 2998, the GI50 was > 100 µM (inactive).

Turning to `Cc1ccc2[nH]c3c(c(=O)n(C)c(=O)n3C)c2c1`, the GI50 in the assay on Hs-578T, with CAKI-1, in the assay with HCT-116, with EKVX, with 786-0 and with MCF7 was > 100 µM (inactive) in each case. Moreover, the GI50 in the assay on NCI/ADR-RES, with HOP-92, in the assay on SW-620, in the assay on SN12C, with SK-MEL-5 and in the assay on HL-60 was > 100 µM (inactive) each time. Further, the GI50 with NCI-H23, in the assay with UACC-62, in the assay with OVCAR-4, with NCI-H522, in the assay on SK-MEL-2 and in the assay on MOLT-4 was > 100 µM (inactive) throughout. Further, in the assay on HCC 2998, the GI50 is > 100 µM (inactive).

For the molecule `CCC(=O)Nc1ccc(NS(=O)(=O)c2ccc(Cl)cc2)cc1`, the GI50 is > 100 µM (inactive) with Hs-578T; 91.4 µM (inactive) in the assay on CAKI-1; > 100 µM (inactive) with HCT-116; 39.8 µM (inactive) with EKVX; > 100 µM (inactive) in the assay on 786-0; > 100 µM (inactive) in the assay on MCF7. In addition, the GI50 in the assay on NCI/ADR-RES was > 100 µM (inactive); in the assay on HOP-92 it was > 100 µM (inactive); in the assay on SW-620, > 100 µM (inactive); in the assay on SN12C, > 100 µM (inactive); in the assay with SK-MEL-5, 47.6 µM (inactive); in the assay on HL-60 it was 28.2 µM (inactive). The GI50 was > 100 µM (inactive) in the assay with NCI-H23; 99.3 µM (inactive) with UACC-62; 53.6 µM (inactive) in the assay on OVCAR-4; > 100 µM (inactive) in the assay on NCI-H522; > 100 µM (inactive) with SK-MEL-2; 34.5 µM (inactive) with MOLT-4. In addition, in the assay on HCC 2998, the GI50 was > 100 µM (inactive).

As to `COc1ccc(C(=O)NC2=C(Cl)C(=O)c3ccccc3C2=O)cc1`, the GI50 in the assay with Hs-578T was 3.08 µM (inactive); with CAKI-1, 2.3 µM (inactive); in the assay with HCT-116, 0.406 µM (active); with EKVX, 5.3 µM (inactive); with 786-0, 5.36 µM (inactive); in the assay on MCF7, 2.75 µM (inactive). For the same molecule, the GI50 with NCI/ADR-RES is 2.07 µM (inactive); with HOP-92, 1.36 µM (inactive); in the assay with SW-620, 1.1 µM (active); in the assay on SN12C it was 2.77 µM (inactive); in the assay with SK-MEL-5, 1.58 µM (inactive); in the assay on HL-60, 0.336 µM (active). In addition, the GI50 was 1.6 µM (inactive) with NCI-H23; 0.471 µM (active) in the assay with UACC-62; 2.17 µM (inactive) in the assay on OVCAR-4; 0.416 µM (active) in the assay with NCI-H522; 1.02 µM (active) with SK-MEL-2; 0.955 µM (active) in the assay with MOLT-4. Further, in the assay on HCC 2998, the GI50 was 4.49 µM (inactive).
